{
  "source": "paper PMC8291485",
  "about": "“Development of New Benzylpiperazine Derivatives as σ1 Receptor Ligands with in Vivo Antinociceptive and Anti-Allodynic Effects” (ACS Chemical Neuroscience, 2021)",
  "key": {"[1]": {"test_system": "CCI-induced mechanical allodynia", "test": "Chronic constriction injury (CCI) model, von Frey mechanical allodynia", "type": "in vivo, CD-1 mice", "conditions": "for anti-allodynic effect in the CCI model (result in words): von Frey, 20–80 min post-injection, 15 10–60 mg/kg i.p. (oxalate salt)", "description": "CCI was introduced in CD-1 mice that were first anesthetized with isoflurane as described by Hoot et al.[66] and Cirino et al.[35] to induce mechanical allodynia.[51]−[54] After anesthetization, mice were subjected to surgery where an incision was made along the surface of the biceps femoris of the right hind paw.[66] Blunt forceps were used to split the muscle and expose the right sciatic nerve. The tips of two 0.1–10 μL pipet tips facing opposite directions were passed under the sciatic nerve to allow for easy passing of two sutures under the nerve, 1 mm apart. The sutures were tied loosely around the nerve and knotted twice, and the skin was closed with 29 mm skin staples. Mice were given a 7 day recovery period prior to the baseline von Frey testing as described below to confirm the induction of hyperalgesia in each mouse. […] Allodynic mice were then administered (i.p.) either vehicle (saline), morphine (10 mg/kg, i.p.), gabapentin (50 mg/kg, i.p.), CM304 (45 mg/kg, i.p.), or compound 15 (10–60 mg/kg, i.p.). Note that gabapentin was tested 1 h postinjection to circumvent known sedative effects that may confound the assay.[67] Each mouse was then tested for the modulation of tactile allodynia every 20 min up until 80 min post-injection with the use of von Frey testing. The assessment of mechanical allodynia was performed to measure compound 15’s efficacy against CCI-induced allodynia as described.[51]−[54] Mice were habituated on a mesh platform for 1 h prior to testing. Filaments of increasing pressure (0.4–6 g) were applied and then held to the plantar surface of both the injured and uninjured hind paws of mice for approximately 1–2 s prior to drug administration to record baseline responses to a peripheral stimulus. The filaments were applied with increasing strengths, and threshold responses were defined as two hind paw responses per trial of the same filament strength. Control or test compounds were administered (i.p.), and paw-withdrawal thresholds were again recorded from 20 to 80 min postinjection. Each hind paw was tested in a counterbalanced manner. Each time was measured in triplicate and then averaged. Responsiveness was a clear withdrawal, shaking, or licking of the paw. To account for variability between mice, data are presented as the percent of baseline paw withdrawal thresholds following filament stimulation of the ipsilateral hind paw. The following equation was used: % anti-allodynia = 100 × ([mean paw withdrawal force {g} in control group – paw withdrawal force {g} of each mouse]/mean paw withdrawal force [g] in control group)."}, "σ1R [2]": {"target": "σ1R", "design": "method as in PMID 22784008, PMID 31258480, PMID 31981633, PMID 32691179, PMID 28644012", "conditions": "cited from earlier work; for Ki: Figure 1, read-out: Ki σ1"}, "σ2R": {"target": "T1, σ2R (Rattus norvegicus, UniProt Q5U3Y7)", "T1 sequence (Q5U3Y7 1-176)": "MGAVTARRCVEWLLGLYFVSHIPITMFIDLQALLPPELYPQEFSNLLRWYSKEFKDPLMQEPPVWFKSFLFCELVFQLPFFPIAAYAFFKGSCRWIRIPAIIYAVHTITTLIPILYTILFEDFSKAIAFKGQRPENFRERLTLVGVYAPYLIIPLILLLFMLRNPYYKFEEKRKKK", "design": "method as in PMID 22784008, PMID 31258480, PMID 31981633, PMID 32691179, PMID 28644012", "conditions": "cited from earlier work"}, "σ1R [3]": {"target": "T2, σ1R (Cavia porcellus, UniProt Q60492)", "T2 construct": "from tissue; host or cells: guinea pig brain membrane homogenates", "T2 sequence (Q60492 whole entry)": "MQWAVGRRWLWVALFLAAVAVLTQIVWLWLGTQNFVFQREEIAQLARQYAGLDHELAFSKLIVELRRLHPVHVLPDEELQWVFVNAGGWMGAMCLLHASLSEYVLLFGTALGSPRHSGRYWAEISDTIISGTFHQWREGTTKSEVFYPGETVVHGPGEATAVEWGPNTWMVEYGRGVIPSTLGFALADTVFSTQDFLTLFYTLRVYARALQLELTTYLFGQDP", "design": "method as in PMID 27262426", "conditions": "lead compound 8, selectivity ratio; cited from earlier work"}, "σ1R [4]": {"target": "T2, σ1R", "test": "σ1R radioligand binding assay ([3H]-pentazocine, guinea pig brain membrane homogenates)", "conditions": "for Ki: mean ± SD of three independent experiments, [3H]-pentazocine, free base; for Ki σ2/Ki σ1: σ1R selectivity ratio over σ2R", "method": "The binding assay for σ1R was carried out using guinea pig brain membrane homogenates according to DeHaven-Hudkins et al.,[58] while the binding assay for σ2R was performed following experimental procedures described by Mach et al.[59] Inhibitory constants (Ki) were calculated using the radioligand binding analysis software EBDA/Ligand (Elsevier/Biosoft)."}, "[5]": {"test_system": "formalin-induced inflammatory nociception", "test": "Formalin-induced inflammation assay (time spent licking the paw)", "type": "in vivo", "conditions": "C57BL/6J mice, 3–30 mg/kg i.p.; 15 as oxalate salt", "description": "After a 10 min pretreatment (i.p.) of vehicle control (saline), CM304 (3–30 mg/kg, i.p.), or compound 15 (3–30 mg/kg, i.p.), an intraplantar (i.pl.) injection of 5% formalin ([…] in 15 μL) was administered into the right hind paw. Time spent licking the right hind paw was recorded in 5 min intervals for 60 min following injection. The last 55 min of assessment was used to determine the inflammatory response stimulus. Data were analyzed as the summed duration of licking hind paw.\nAll data are presented as mean ± SEM. Significance is indicated as *p < 0.05 and was analyzed using two-way ANOVA with Tukey’s post hoc analysis. Statistical analysis was performed with the use of GraphPad Prism 9.0 software. […]. The rotarod data are expressed as the % change from baseline performance for each animal’s baseline response."}},
  "note": "“Also recorded” adds a separate entry of the source. Like-named read-outs stand apart in the source and are kept apart here.",
  "data": [
    {"smiles": "O=c1sc2cc(CCCF)ccc2n1CCN1CCCCCC1", "note": "[Compound 1]", "values": [
      {"measurement": "time of peak anti-allodynic effect", "setting": "[1]; CD-1 mice, CM304 45 mg/kg i.p., began to diminish at 60 min", "result": 40, "unit": "min"},
      {"measurement": "anti-allodynic effect in the CCI model (result in words)", "setting": "[1]; CD-1 mice, CM304 45 mg/kg i.p.", "result": "anti-allodynic effects that are comparable to those of gabapentin"},
      {"measurement": "Ki", "setting": "σ1R [2]", "result": 0.96, "unit": "nM"},
      {"measurement": "Ki σ2/Ki σ1", "setting": "σ1R [2]; printed in Figure 1, σ1R selectivity", "result": "> 486"},
      {"measurement": "Ki", "setting": "σ2R; Figure 1, read-out: Ki σ2", "result": 467, "unit": "nM"}
    ]},
    {"smiles": "COc1cc2c(cc1OC)CN(CCCCn1c(=O)n(C)c3ccccc31)CC2", "note": "[Compound 3, 1-(4-(6,7-dimethoxy-3,4-dihydroisoquinolin-2(1H)-yl)butyl)-3-methyl-1H-benzo[d]imidazol-2(3H)-one]", "values": [
      {"measurement": "Ki", "setting": "σ1R [2]", "result": 560, "unit": "nM"},
      {"measurement": "Ki σ1/Ki σ2", "setting": "σ2R; printed in Figure 1, σ2R selectivity", "result": "> 1,302"}
    ]},
    {"smiles": "OCCCN1CCCC2CC1c1cc(-c3ccc(C(F)(F)F)cc3)ccc12", "note": "(stereo not drawn) [Compound 4]", "values": [
      {"measurement": "Ki", "setting": "σ1R [2]", "result": "> 1000", "unit": "nM"}
    ]},
    {"smiles": "CC(CCCn1c(=O)sc2cc(F)ccc21)N1CCN(C2CCCCC2)CC1", "note": "(stereo not drawn) [Compound 5]", "values": [
      {"measurement": "Ki", "setting": "σ1R [2]", "result": 2.4, "unit": "nM"}
    ]},
    {"smiles": "O=c1oc2ccc(Cl)cc2n1CCCCN1CCCCCC1", "note": "[Compound 6]", "values": [
      {"measurement": "Ki", "setting": "σ1R [2]", "result": 2.3, "unit": "nM"}
    ]},
    {"smiles": "COc1ccc(CN2CCN(C(=O)CCCCC3CCSS3)CC2)cc1", "note": "(stereo not drawn) [Compound 8]", "values": [
      {"measurement": "Ki σ2/Ki σ1", "setting": "σ1R [3]", "result": 432}
    ]},
    {"smiles": "COc1ccc(CN2CCN(C(=O)CCCCc3ccccc3)CC2)cc1", "note": "[Compound 13, 1-{4-[(4-Methoxyphenyl)methyl]piperazin-1-yl}-5-phenylpentan-1-one]", "values": [
      {"measurement": "Ki", "setting": "σ1R [4]", "result": "18.1 ± 0.44", "unit": "nM"},
      {"measurement": "Ki σ2/Ki σ1", "setting": "σ1R [4]", "result": 64}
    ]},
    {"smiles": "COc1ccc(CN2CCN(C(=O)CCCc3ccccc3)CC2)cc1", "note": "[Compound 14, 1-{4-[(4-Methoxyphenyl)methyl]piperazin-1-yl}-4-phenylbutan-1-one]", "values": [
      {"measurement": "Ki", "setting": "σ1R [4]", "result": "13.3 ± 0.22", "unit": "nM"},
      {"measurement": "Ki σ2/Ki σ1", "setting": "σ1R [4]", "result": 124},
      {"measurement": "melting point", "result": "91 to 93.9", "unit": "°C"}
    ]},
    {"smiles": "COc1ccc(CN2CCN(C(=O)CCC3CCCCC3)CC2)cc1", "note": "[Compound 15, 3-Cyclohexyl-1-{4-[(4-methoxyphenyl)methyl]piperazin-1-yl}propan-1-one]", "values": [
      {"measurement": "Ki", "setting": "σ1R [4]", "result": "1.6 ± 0.05", "unit": "nM"},
      {"measurement": "Ki σ2/Ki σ1", "setting": "σ1R [4]", "result": 886},
      {"measurement": "antinociception in the formalin assay (result in words)", "setting": "[5]", "result": "dose-dependent (3–60 mg/kg, i.p.) antinociception and anti-allodynic effects; also recorded: significant dose-dependent antinociception; also recorded: dose-dependent increase in % antinociception; also recorded: significant antinociceptive and anti-allodynic effects"},
      {"measurement": "paw withdrawal thresholds in the CCI model (result in words)", "setting": "[1]; 60 mg/kg, i.p., at 20, 60, and 80 min post-injection, p < 0.05", "result": "significant increases in withdrawal thresholds"},
      {"measurement": "anti-allodynic effect in the CCI model (result in words)", "setting": "[1]; CD-1 mice, CM304 45 mg/kg i.p.", "result": "dose-dependent (3–60 mg/kg, i.p.) antinociception and anti-allodynic effects; also recorded: significant dose-dependent anti-allodynic effects; also recorded: significant antinociceptive and anti-allodynic effects"}
    ]},
    {"smiles": "COc1ccc(CN2CCN(C(=O)/C=C/c3ccccc3)CC2)cc1", "note": "[Compound 16, (2E)-1-{4-[(4-Methoxyphenyl)methyl]piperazin-1-yl}-3-phenylprop-2-en-1-one]", "values": [
      {"measurement": "Ki", "setting": "σ1R [4]", "result": "11.3 ± 0.26", "unit": "nM"},
      {"measurement": "Ki σ2/Ki σ1", "setting": "σ1R [4]", "result": 351},
      {"measurement": "melting point", "result": "120.8 to 122.6", "unit": "°C"}
    ]},
    {"smiles": "COc1ccc(CN2CCN(C(=O)CCCOc3ccccc3)CC2)cc1", "note": "[Compound 20, 1-{4-[(4-Methoxyphenyl)methyl]piperazin-1-yl}-4-phenoxybutan-1-one]", "values": [
      {"measurement": "Ki", "setting": "σ1R [4]", "result": "102 ± 0.6", "unit": "nM"},
      {"measurement": "Ki σ2/Ki σ1", "setting": "σ1R [4]", "result": 43},
      {"measurement": "melting point", "result": "88.3 to 91.3", "unit": "°C"}
    ]},
    {"smiles": "COc1ccc(CN2CCN(C(=O)CCc3ccccc3)CC2)cc1", "note": "[Compound 21, 1-{4-[(4-Methoxyphenyl)methyl]piperazin-1-yl}-3-phenylpropan-1-one]", "values": [
      {"measurement": "Ki", "setting": "σ1R [4]", "result": "8.8 ± 0.22", "unit": "nM"},
      {"measurement": "Ki σ2/Ki σ1", "setting": "σ1R [4]", "result": 370}
    ]},
    {"smiles": "COc1ccc(CN2CCN(C(=O)Cc3ccccc3)CC2)cc1", "note": "[Compound 22, 1-{4-[(4-Methoxyphenyl)methyl]piperazin-1-yl}-2-phenylethan-1-one]", "values": [
      {"measurement": "Ki", "setting": "σ1R [4]", "result": "145 ± 0.5", "unit": "nM"},
      {"measurement": "Ki σ2/Ki σ1", "setting": "σ1R [4]", "result": 160},
      {"measurement": "melting point", "result": "97.6 to 99.8", "unit": "°C"}
    ]},
    {"smiles": "O=C(CCCCc1ccccc1)N1CCN(Cc2ccc(CO)cc2)CC1", "note": "[Compound 24, 1-(4-{[4-(Hydroxymethyl)phenyl]methyl}piperazin-1-yl)-5-phenylpentan-1-one]", "values": [
      {"measurement": "Ki", "setting": "σ1R [4]", "result": "6.1 ± 0.1", "unit": "nM"},
      {"measurement": "Ki σ2/Ki σ1", "setting": "σ1R [4]", "result": 423}
    ]},
    {"smiles": "FCCC1Cc2ccccc2C2(CCC(N3CCN(C4CCCCC4)CC3)CC2)O1", "note": "(stereo not drawn) [cis-7]", "values": [
      {"measurement": "Ki", "setting": "σ1R [2]", "result": 19, "unit": "nM"}
    ]},
    {"smiles": "FCCC1Cc2ccccc2C2(CCC(N3CCN(C4CCCCC4)CC3)CC2)O1", "note": "(stereo not drawn) [trans-7]", "values": [
      {"measurement": "Ki", "setting": "σ1R [2]", "result": 12, "unit": "nM"}
    ]}
  ]
}
